From patent US20240158392A1 (Janssen Biotech, Inc., priority 2021, published 2024)

target: SIK2 (Homo sapiens, UniProt Q9H0K1); assay: SIK2 Enzymatic Assay High Version 2 (High ATP); type: biochemical; conditions: not given
Procedure, shortened: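 At room temperature, enzyme (6 nM, 2× final) was preincubated with compound for 30 min, then 6 mM ATP and 400 μM HDAC5tide (both 2× final) were added for 2 h. ADP formed was measured by ADP-Glo Max (2 h reagent, 1 h detection) using luminescence.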

SIK2, sequence (Q9H0K1 whole entry, species assumed): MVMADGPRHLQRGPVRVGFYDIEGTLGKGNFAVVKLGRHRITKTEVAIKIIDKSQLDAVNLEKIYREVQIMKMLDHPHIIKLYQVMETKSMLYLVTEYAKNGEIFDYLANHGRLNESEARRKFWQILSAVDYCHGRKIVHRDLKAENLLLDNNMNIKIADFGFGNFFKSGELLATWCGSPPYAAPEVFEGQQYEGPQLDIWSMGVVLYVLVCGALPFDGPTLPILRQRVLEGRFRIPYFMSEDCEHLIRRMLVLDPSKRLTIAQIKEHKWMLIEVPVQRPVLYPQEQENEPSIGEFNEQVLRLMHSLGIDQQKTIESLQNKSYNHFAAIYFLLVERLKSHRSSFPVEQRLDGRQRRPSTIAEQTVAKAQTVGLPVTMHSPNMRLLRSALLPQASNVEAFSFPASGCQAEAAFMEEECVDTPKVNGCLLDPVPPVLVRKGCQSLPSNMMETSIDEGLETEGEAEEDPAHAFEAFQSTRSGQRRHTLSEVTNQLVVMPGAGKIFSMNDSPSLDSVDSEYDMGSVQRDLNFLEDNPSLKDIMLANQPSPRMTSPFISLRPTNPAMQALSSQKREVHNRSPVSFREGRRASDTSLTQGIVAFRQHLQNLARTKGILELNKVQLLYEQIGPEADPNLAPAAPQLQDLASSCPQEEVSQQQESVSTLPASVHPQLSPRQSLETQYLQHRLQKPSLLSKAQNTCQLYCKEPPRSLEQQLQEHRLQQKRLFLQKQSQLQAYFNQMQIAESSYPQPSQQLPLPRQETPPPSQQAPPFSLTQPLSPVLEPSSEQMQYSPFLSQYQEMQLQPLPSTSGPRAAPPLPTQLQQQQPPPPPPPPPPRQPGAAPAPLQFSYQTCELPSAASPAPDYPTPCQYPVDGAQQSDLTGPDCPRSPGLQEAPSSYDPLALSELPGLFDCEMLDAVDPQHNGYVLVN

Row | Structure (SMILES) | IC50
1 | Cc1cc(Nc2cc3cc(-c4cc(C)ncc4O[C@H]4C[C@H]5COC[C@@H](C4)N5C)ccn3n2)ncn1 [Example 421, 5-[2-methyl-5-[[(1R,5S,7s)-9-methyl-3-oxa-9-azabicyclo[3.3.1]nonan-7-yl]oxy]-4-pyridyl]-N-(6-methylpyrimidin-4-yl)pyrazolo[1,5-a]pyridin-2-amine] | 0.0122 µM
2 | Cc1cnc(Nc2cc3cc(-c4cc(C)ncc4O[C@H]4C[C@H]5COC[C@@H](C4)N5)ccn3n2)nc1 [Example 391, 5-(5-(((1R,5S,7s)-3-oxa-9-azabicyclo[3.3.1]nonan-7-yl)oxy)-2-methylpyridin-4-yl)-N-(5-methylpyrimidin-2-yl)pyrazolo[1,5-a]pyridin-2-amine] | < 0.000847 µM
3 | Cc1cc(-c2ccn3nc(Nc4ncccn4)cc3c2)c(O[C@H]2C[C@H]3COC[C@@H](C2)N3)cn1 [Example 402, 5-[2-methyl-5-[[(1S,5R,7s)-3-oxa-9-azabicyclo[3.3.1]nonan-7-yl]oxy]-4-pyridyl]-N-pyrimidin-2-yl-pyrazolo[1,5-a]pyridin-2-amine] | 0.0984 µM
4 | [2H]C([2H])([2H])N1[C@@H]2COC[C@H]1C[C@@H](Oc1cnc(C)cc1-c1ccn3nc(NC(=O)C4CC4)cc3c1)C2 [Example 462, N-[5-[2-methyl-5-[[(1S,5R)-9-(trideuteriomethyl)-3-oxa-9-azabicyclo[3.3.1]nonan-7-yl]oxy]-4-pyridyl]pyrazolo[1,5-a]pyridin-2-yl]cyclopropanecarboxamide] | 0.00741 µM
5 | Cc1cc(-c2ccn3nc(Nc4ccc(C(F)(F)F)cn4)cc3c2)c(O[C@H]2C[C@H]3COC[C@@H](C2)N3C)cn1 [Example 411, 5-[2-methyl-5-[[(1S,5R,7s)-9-methyl-3-oxa-9-azabicyclo[3.3.1]nonan-7-yl]oxy]-4-pyridyl]-N-[5-(trifluoromethyl)-2-pyridyl]pyrazolo[1,5-a]pyridin-2-amine] | 0.00152 µM
6 | Cc1cc(-c2cn3cc(Nc4cc(C)nc(C)n4)nc3cn2)c(O[C@H]2C[C@H]3COC[C@@H](C2)N3)cn1 [Example 350, N-(2,6-dimethylpyrimidin-4-yl)-6-[2-methyl-5-[[(1R,5S)-3-oxa-9-azabicyclo[3.3.1]nonan-7-yl]oxy]-4-pyridyl]imidazo[1,2-a]pyrazin-2-amine] | 0.0403 µM
7 | Cc1cc(-c2ccn3nc(NC(=O)C4CC4)cc3c2)c(O[C@H]2[C@@H]3CN(C)[C@H]2CO3)cn1 [Example 164, N-(5-(2-methyl-5-(((1S,4S,7R)-5-methyl-2-oxa-5-azabicyclo[2.2.1]heptan-7-yl)oxy)pyridin-4-yl)pyrazolo[1,5-a]pyridin-2-yl)cyclopropanecarboxamide] | 0.218 µM
8 | Cc1cc(-c2ccn3nc(Nc4nn(C)cc4F)cc3c2)c(O[C@H]2C[C@H]3COC[C@@H](C2)N3C)cn1 [Example 118, N-(4-fluoro-1-methyl-1H-pyrazol-3-yl)-5-(2-methyl-5-(((1R,5S,7s)-9-methyl-3-oxa-9-azabicyclo[3.3.1]nonan-7-yl)oxy)pyridin-4-yl)pyrazolo[1,5-a]pyridin-2-amine] | < 0.000847 µM

same assay, conditions: enzyme 6 nM, 6 mM ATP and 400 μM HDAC5tide (each 2× final concentration); 30 minutes pre-incubation, 2 hours; ADP-Glo Max luminescence; read-out: SIK2 high ATP IC50 (μM) (Test Example 2)

Row | Structure (SMILES) | IC50
9 | CC#Cc1cc(-c2ccn3nc(Nc4cc(C)nc(C)n4)cc3c2)c(OC[C@@H]2OCC[C@H]2O)cn1 [Example 671, (2S,3R)-2-[[4-[2-[(2,6-dimethylpyrimidin-4-yl)amino]pyrazolo[1,5-a]pyridin-5-yl]-6-prop-1-ynyl-3-pyridyl]oxymethyl]tetrahydrofuran-3-ol] | 0.204 µM
10 | Cc1cc(-c2ccn3nc(Nc4cnccn4)cc3c2)c(OC[C@@H]2CNCCO2)cn1 [Example 431, 5-[2-methyl-5-[[(2S)-morpholin-2-yl]methoxy]-4-pyridyl]-N-pyrazin-2-yl-pyrazolo[1,5-a]pyridin-2-amine] | 0.00194 µM
11 | Cc1cc(-c2ccn3nc(Nc4cc(C)nc(C)n4)cc3c2)c(OC[C@@](C)(N)C(F)(F)F)cn1 (single isomer, unassigned) [Example 270, (*R)-5-[5-(2-Amino-3,3,3-trifluoro-2-methyl-propoxy)-2-methyl-4-pyridyl]-N-(2,6-dimethylpyrimidin-4-yl)pyrazolo[1,5-a]pyridin-2-amine] | 0.0193 µM
12 | Cc1cc(-c2ccn3nc(Nc4cc(C)c(=O)n(CC(C)C)n4)cc3c2)c(OCC(C)(C)O)cn1 [Example 282, 6-[[5-[5-(2-hydroxy-2-methyl-propoxy)-2-methyl-4-pyridyl]pyrazolo[1,5-a]pyridin-2-yl]amino]-2-isobutyl-4-methyl-pyridazin-3-one] | 0.00608 µM
13 | CNc1nc(C)cc(Nc2cc3cc(-c4cc(O)ncc4OCC(C)(C)C#N)ccn3n2)n1 [Example 674, 3-[[6-hydroxy-4-[2-[[6-methyl-2-(methylamino)pyrimidin-4-yl]amino]pyrazolo[1,5-a]pyridin-5-yl]-3-pyridyl]oxy]-2,2-dimethyl-propanenitrile] | 0.063 µM
14 | Cc1cc(-c2ccn3nc(Nc4cc(C)c(=O)n(CCOC(F)F)n4)cc3c2)c(OC[C@H]2OCC[C@@H]2O)cn1 [Example 296, 2-[2-(difluoromethoxy)ethyl]-6-[[5-[5-[[(2R,3S)-3-hydroxytetrahydrofuran-2-yl]methoxy]-2-methyl-4-pyridyl]pyrazolo[1,5-a]pyridin-2-yl]amino]-4-methyl-pyridazin-3-one] | 0.00698 µM
15 | CC(C)(C#N)COc1cnc(OC(F)F)cc1-c1ccn2nc(Nc3cccnc3)cc2c1 [Example 694, 3-[[6-(difluoromethoxy)-4-[2-(3-pyridylamino)pyrazolo[1,5-a]pyridin-5-yl]-3-pyridyl]oxy]-2,2-dimethyl-propanenitrile] | 0.0195 µM
16 | Cc1cc(-c2ccn3nc(Nc4cc(C)nc(C)n4)cc3c2)c(OC[C@](C)(N)C(F)(F)F)cn1 (single isomer, unassigned) [Example 304, (*S)-5-[5-(2-amino-3,3,3-trifluoro-2-methyl-propoxy)-2-methyl-4-pyridyl]-N-(2,6-dimethylpyrimidin-4-yl)pyrazolo[1,5-a]pyridin-2-amine] | 0.0028 µM
17 | Cc1cc(-c2ccn3nc(NC(=O)C4CC4)cc3c2)c(OC[C@@]23C[C@@H](CO2)N(C)C3)cn1 [Example 237, N-[5-[2-methyl-5-[[(1S,4S)-2-methyl-5-oxa-2-azabicyclo[2.2.1]heptan-4-yl]methoxy]-4-pyridyl]pyrazolo[1,5-a]pyridin-2-yl]cyclopropanecarboxamide] | 0.0282 µM
18 | Cc1cc(Nc2cc3cc(-c4cc(OCC(F)(F)F)ncc4OC[C@H]4OCC[C@@H]4O)ccn3n2)nc(C)n1 [Example 499, (2R,3S)-2-[[4-[2-[(2,6-dimethylpyrimidin-4-yl)amino]pyrazolo[1,5-a]pyridin-5-yl]-6-(2,2,2-trifluoroethoxy)-3-pyridyl]oxymethyl]tetrahydrofuran-3-ol] | 0.00352 µM
19 | Cc1cc(-c2ccn3nc(Nc4cc(C)c(=O)n(C5CC5)n4)cc3c2)c(OCC(C)(C)C#N)cn1 [Example 316, 3-[[4-[2-[(1-cyclopropyl-5-methyl-6-oxo-pyridazin-3-yl)amino]pyrazolo[1,5-a]pyridin-5-yl]-6-methyl-3-pyridyl]oxy]-2,2-dimethyl-propanenitrile] | < 0.000847 µM
20 | N#Cc1cc(-c2ccn3nc(NC(=O)C4CC4)cc3c2)c(OC[C@H]2C[C@@H](NCc3ccccc3)C2)cn1 [Example 599, N-[5-[5-[[3-(benzylamino)cyclobutyl]methoxy]-2-cyano-4-pyridyl]pyrazolo[1,5-a]pyridin-2-yl]cyclopropanecarboxamide] | 0.141 µM
21 | Cc1cc(-c2ccn3nc(Nc4cc(C)nc(C)n4)cc3c2)c(OC[C@H]2C[C@H](O)C2)cn1 [Example 538, (1r,3r)-3-(((4-(2-((2,6-dimethylpyrimidin-4-yl)amino)pyrazolo[1,5-a]pyridin-5-yl)-6-methylpyridin-3-yl)oxy)methyl)cyclobutan-1-ol] | 0.0129 µM
22 | Cc1cc(-c2cn3cc(NC(=O)C4CC4)nc3cn2)c(O[C@H]2CC[C@@H](O)CC2)cn1 [Example 655, N-[6-[5-(4-hydroxycyclohexoxy)-2-methyl-4-pyridyl]imidazo[1,2-a]pyrazin-2-yl]cyclopropanecarboxamide] | 0.0943 µM
23 | Cc1cc(-c2ccn3nc(NC(=O)C4CC4)cc3c2)c(O[C@H]2CC[C@](C)(O)CC2)cn1 [Example 151, trans-N-(5-(5-(((1r,4r)-4-hydroxy-4-methylcyclohexyl)oxy)-2-methylpyridin-4-yl)pyrazolo[1,5-a]pyridin-2-yl)cyclopropanecarboxamide] | 0.00378 µM
24 | Cc1ccc(Nc2cc3cc(-c4cc(OC(F)F)ncc4OCC(C)(C)C#N)ccn3n2)nn1 [Example 711, 3-[[6-(difluoromethoxy)-4-[2-[(6-methylpyridazin-3-yl)amino]pyrazolo[1,5-a]pyridin-5-yl]-3-pyridyl]oxy]-2,2-dimethyl-propanenitrile] | 0.01 µM
25 | Cc1cc(-c2ccn3nc(Nc4cc(C)nc(C)n4)cc3c2)c(OC[C@@]2(O)CCCOC2)cn1 (single isomer, unassigned) [Example 216, (*R)-3-[[4-[2-[(2,6-dimethylpyrimidin-4-yl)amino]pyrazolo[1,5-a]pyridin-5-yl]-6-methyl-3-pyridyl]oxymethyl]tetrahydropyran-3-ol] | 0.0311 µM
26 | Cc1cc(-c2ccn3nc(Nc4ccc(C)nn4)cc3c2)c(OC[C@@]23CN[C@@H](CO2)C3)cn1 [Example 254, 5-[2-methyl-5-[[(1R,4R)-5-oxa-2-azabicyclo[2.2.1]heptan-4-yl]methoxy]-4-pyridyl]-N-(6-methylpyridazin-3-yl)pyrazolo[1,5-a]pyridin-2-amine] | 0.00637 µM
27 | CC(C)(C#N)COc1cnc(OC(F)F)cc1-c1ccn2nc(Nc3ccnc(N)n3)cc2c1 [Example 705, 3-[[4-[2-[(2-aminopyrimidin-4-yl)amino]pyrazolo[1,5-a]pyridin-5-yl]-6-(difluoromethoxy)-3-pyridyl]oxy]-2,2-dimethyl-propanenitrile] | 0.0306 µM
28 | CC#Cc1cc(-c2ccn3nc(Nc4ccn(C)n4)cc3c2)c(OCC2(F)CNC2)cn1 [Example 437, 5-[5-[(3-fluoroazetidin-3-yl)methoxy]-2-prop-1-ynyl-4-pyridyl]-N-(1-methylpyrazol-3-yl)pyrazolo[1,5-a]pyridin-2-amine] | < 0.000847 µM
